Literature values, collected in patent US20230329971A1, “MEDICINAL PRODUCT COMPRISING A FLEXIBLE PLASTIC BAG AND AN AQUEOUS, READY-TO-USE SOLUTION OF MIDAZOLAM” (B. Braun Melsungen AG, priority 2020, published 2023).

Settings: in aqueous 5% dextrose solution or aqueous 0.9% sodium chloride solution

Cc1ncc2n1-c1ccc(Cl)cc1C(c1ccccc1F)=NC2.Cl [midazolam hydrochloride, 8-chloro-6-(2-fluorophenyl)-1-methyl-4H-imidazo [1,5-a] [1, 4] benzodiazepine hydrochloride]
stable over: 30 days
